According to PubChem BioAssay (NCI):
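Five compound concentrations were applied to cells in 96-well plates for 48 hours; endpoints were derived by simple linear interpolation of the resulting dose-response curve. GI50 marks 50% less growth. The concentration for full growth arrest is given as TGI.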

How the values were obtained:
Test in all cases: NCI anticancer screen, dose series, 48 h
[1] = system: 786-0 renal
[2] = system: A498 renal
[3] = system: A549 NSCLC
[4] = system: ACHN renal
[5] = system: BT-549 breast
[6] = system: CAKI-1 renal
[7] = system: CCRF-CEM leukemia
[8] = system: COLO 205 colon
[9] = system: DU-145 prostate
[10] = system: EKVX NSCLC
[11] = system: HCC-2998 colon
[12] = system: HCT-116 colon
[13] = system: HCT-15 colon
[14] = system: HL-60(TB) leukemia
[15] = system: HOP-62 NSCLC
[16] = system: HOP-92 NSCLC
[17] = system: HS 578T breast
[18] = system: HT29 colon
[19] = system: IGROV1 ovarian
[20] = system: K-562 leukemia
[21] = system: KM12 colon
[22] = system: LOX IMVI melanoma
[23] = system: M14 melanoma
[24] = system: MALME-3M melanoma
[25] = system: MCF7 breast
[26] = system: MDA-MB-231 breast
[27] = system: MDA-MB-435
[28] = system: MOLT-4 leukemia
[29] = system: NCI-H226 lung
[30] = system: NCI-H460 lung
[31] = system: NCI-H522 lung
[32] = system: NCI/ADR-RES ovarian
[33] = system: OVCAR-3 ovarian
[34] = system: OVCAR-4 ovarian
[35] = system: OVCAR-5 ovarian
[36] = system: OVCAR-8 ovarian
[37] = system: PC-3 prostate
[38] = system: RPMI-8226 leukemia
[39] = system: RXF 393 renal
[40] = system: SF-268 CNS
[41] = system: SF-295 CNS
[42] = system: SF-539 CNS
[43] = system: SK-MEL-2 melanoma
[44] = system: SK-MEL-28 melanoma
[45] = system: SK-MEL-5 melanoma
[46] = system: SK-OV-3 ovarian
[47] = system: SN12C renal
[48] = system: SNB-19 CNS
[49] = system: SNB-75 CNS
[50] = system: SR leukemia
[51] = system: SW-620 colon
[52] = system: T-47D breast
[53] = system: TK-10 renal
[54] = system: U251 CNS
[55] = system: UACC-257 melanoma
[56] = system: UACC-62 melanoma
[57] = system: UO-31 renal
[58] = system: NCI-H23 lung

`CCCC(=O)NC(c1cccnc1)c1cc(C(C)(C)C)c2cccnc2c1O` (stereo not given) was tested, and the GI50 [1] was 4.61 µM, the TGI [1] was > 100 µM and the GI50 [2] was > 100 µM. For the same molecule, the TGI [2] was > 100 µM, the GI50 [3] was 5.68 µM and the TGI [3] was > 100 µM. For the same molecule, the GI50 [4] was 3.62 µM, the TGI [4] was > 100 µM and the GI50 [5] was 5.06 µM. For the same molecule, the TGI [5] was > 100 µM, the GI50 [6] was 3.19 µM and the TGI [6] was > 100 µM. The GI50 [7] was 2.63 µM, the TGI [7] was > 100 µM and the GI50 [8] was 3.25 µM. For the same molecule, the TGI [8] was > 100 µM, the GI50 [9] was 11.3 µM and the TGI [9] was > 100 µM. For the same molecule, the GI50 [10] was 5.19 µM, the TGI [10] was > 100 µM and the GI50 [11] was 7.41 µM. For the same molecule, the TGI [11] was > 100 µM, the GI50 [12] was 3.74 µM and the TGI [12] was > 100 µM. For the same molecule, the GI50 [13] was 3.24 µM, the TGI [13] was > 100 µM and the GI50 [14] was 2.86 µM. The TGI [14] was 21.1 µM, the GI50 [15] was 4.15 µM and the TGI [15] was > 100 µM. The GI50 [16] was 1.53 µM, the TGI [16] was 16.2 µM and the GI50 [17] was 7.31 µM. The TGI [17] was > 100 µM, the GI50 [18] was 4.32 µM and the TGI [18] was > 100 µM. The GI50 [19] was 3.7 µM, the TGI [19] was > 100 µM and the GI50 [20] was 3.45 µM. For the same molecule, the TGI [20] was > 100 µM, the GI50 [21] was 6.8 µM and the TGI [21] was > 100 µM. The GI50 [22] was 3.78 µM, the TGI [22] was > 100 µM and the GI50 [23] was 3.91 µM. For the same molecule, the TGI [23] was 44 µM, the GI50 [24] was 10.6 µM and the TGI [24] was > 100 µM. The GI50 [25] was 2.97 µM, the TGI [25] was > 100 µM and the GI50 [26] was 6.3 µM. For the same molecule, the TGI [26] was > 100 µM, the GI50 [27] was 6.94 µM and the TGI [27] was > 100 µM. For the same molecule, the GI50 [28] was 3.53 µM, the TGI [28] was > 100 µM and the GI50 [29] was 3.75 µM. The TGI [29] was 83.1 µM, the GI50 [30] was 3.89 µM and the TGI [30] was > 100 µM. The GI50 [31] was 2.78 µM, the TGI [31] was 20.4 µM and the GI50 [32] was 2.54 µM. For the same molecule, the TGI [32] was > 100 µM, the GI50 [33] was 3.98 µM and the TGI [33] was > 100 µM. The GI50 [34] was 3.82 µM, the TGI [34] was > 100 µM and the GI50 [35] was 6.96 µM. For the same molecule, the TGI [35] was > 100 µM, the GI50 [36] was 4 µM and the TGI [36] was > 100 µM. The GI50 [37] was 4.39 µM, the TGI [37] was > 100 µM and the GI50 [38] was 4.35 µM. The TGI [38] was > 100 µM, the GI50 [39] was 4.31 µM and the TGI [39] was > 100 µM. The GI50 [40] was 5.11 µM, the TGI [40] was > 100 µM and the GI50 [41] was 4.24 µM. For the same molecule, the TGI [41] was > 100 µM, the GI50 [42] was 4.37 µM and the TGI [42] was > 100 µM. For the same molecule, the GI50 [43] was 6.7 µM, the TGI [43] was > 100 µM and the GI50 [44] was 4.86 µM. The TGI [44] was > 100 µM, the GI50 [45] was 13.7 µM and the TGI [45] was 48.4 µM. The GI50 [46] was 3.46 µM, the TGI [46] was 71.7 µM and the GI50 [47] was 7.13 µM. The TGI [47] was > 100 µM, the GI50 [48] was 8.15 µM and the TGI [48] was > 100 µM. For the same molecule, the GI50 [49] was 2.51 µM, the TGI [49] was 16.4 µM and the GI50 [50] was 3.69 µM. The TGI [50] was > 100 µM, the GI50 [51] was 6.07 µM and the TGI [51] was > 100 µM. The GI50 [52] was 3.59 µM, the TGI [52] was > 100 µM and the GI50 [53] was 5.48 µM. For the same molecule, the TGI [53] was > 100 µM, the GI50 [54] was 4.12 µM and the TGI [54] was > 100 µM. The GI50 [55] was 3.82 µM, the TGI [55] was 66.4 µM and the GI50 [56] was 3.24 µM. For the same molecule, the TGI [56] was 19.6 µM, the GI50 [57] was 2.22 µM and the TGI [57] was > 100 µM.

For `COc1ccc(/C(=N\NC(N)=S)c2ccc(Cl)cc2)cc1OC`, the GI50 [1] was 7.54 µM, the TGI [1] was 23.1 µM and the GI50 [2] was 5.93 µM. It also gave a TGI [2] of 13.4 µM, a GI50 [3] of 5.94 µM and a TGI [3] of 32.3 µM. It also gave a GI50 [4] of 5.89 µM, a TGI [4] of 29.2 µM and a GI50 [5] of 2.4 µM. For the same molecule, the TGI [5] was 6.33 µM, the GI50 [6] was 3.28 µM and the TGI [6] was 17.1 µM. For the same molecule, the GI50 [7] was 2.63 µM, the TGI [7] was 16.6 µM and the GI50 [8] was 3.37 µM. The TGI [8] was 10.8 µM, the GI50 [9] was 5.95 µM and the TGI [9] was 22.5 µM. The GI50 [10] was 4.95 µM, the TGI [10] was 28.3 µM and the GI50 [11] was 4.36 µM. The TGI [11] was 16.5 µM, the GI50 [12] was 3.59 µM and the TGI [12] was 15.6 µM. For the same molecule, the GI50 [13] was 2.06 µM, the TGI [13] was 15.6 µM and the GI50 [14] was 1.77 µM. For the same molecule, the TGI [14] was 8.05 µM, the GI50 [15] was 4.38 µM and the TGI [15] was 20.8 µM. The GI50 [16] was 4.67 µM, the TGI [16] was 17.4 µM and the GI50 [17] was 2.77 µM. It also gave a TGI [17] of 13.8 µM, a GI50 [18] of 2.69 µM and a TGI [18] of 9.48 µM. It also gave a GI50 [19] of 4.11 µM, a TGI [19] of 20.4 µM and a GI50 [20] of 1.04 µM. The TGI [20] was > 41.1 µM, the GI50 [21] was 3.56 µM and the TGI [21] was 19.4 µM. For the same molecule, the GI50 [22] was 4.41 µM, the TGI [22] was 18.2 µM and the GI50 [23] was 2.93 µM. It also gave a TGI [23] of 15.2 µM, a GI50 [24] of 3.54 µM and a TGI [24] of 19.2 µM. The GI50 [25] was 3.12 µM, the TGI [25] was 15.5 µM and the GI50 [26] was 4.48 µM. It also gave a TGI [26] of 18.2 µM, a GI50 [27] of 0.638 µM and a TGI [27] of 2.84 µM. For the same molecule, the GI50 [28] was 4.91 µM, the TGI [28] was 29.2 µM and the GI50 [29] was 2.72 µM. It also gave a TGI [29] of 17.6 µM, a GI50 [58] of 4.7 µM and a TGI [58] of 18.2 µM. For the same molecule, the GI50 [30] was 3.58 µM, the TGI [30] was 13 µM and the GI50 [31] was 1.37 µM. It also gave a TGI [31] of 4.62 µM, a GI50 [32] of 2.34 µM and a TGI [32] of 9.89 µM. For the same molecule, the GI50 [33] was 3.47 µM, the TGI [33] was 14.9 µM and the GI50 [34] was 7.01 µM. For the same molecule, the TGI [34] was 40.7 µM, the GI50 [35] was 5.44 µM and the TGI [35] was 21.3 µM. It also gave a GI50 [36] of 4.41 µM, a TGI [36] of 20.5 µM and a GI50 [37] of 3.76 µM. For the same molecule, the TGI [37] was 20.1 µM, the GI50 [38] was 3.4 µM and the TGI [38] was 16.4 µM. The GI50 [39] was 1.94 µM, the TGI [39] was 7.26 µM and the GI50 [40] was 8.87 µM. It also gave a TGI [40] of 30.3 µM, a GI50 [41] of 3.56 µM and a TGI [41] of 14.2 µM. For the same molecule, the GI50 [42] was 2.63 µM, the TGI [42] was 9.11 µM and the GI50 [43] was 1.67 µM. The TGI [43] was 4.67 µM, the GI50 [44] was 6.95 µM and the TGI [44] was 21.7 µM. It also gave a GI50 [45] of 4.14 µM, a TGI [45] of 14 µM and a GI50 [46] of 3.38 µM. It also gave a TGI [46] of 16.1 µM, a GI50 [47] of 4.63 µM and a TGI [47] of 18.5 µM. The GI50 [48] was 5.22 µM, the TGI [48] was 21.5 µM and the GI50 [49] was 1.69 µM. For the same molecule, the TGI [49] was 6.73 µM, the GI50 [50] was 2.43 µM and the TGI [50] was > 39.7 µM. For the same molecule, the GI50 [51] was 3.65 µM, the TGI [51] was 17.5 µM and the GI50 [52] was 3.16 µM. For the same molecule, the TGI [52] was 25 µM, the GI50 [53] was 11.1 µM and the TGI [53] was 31.6 µM. For the same molecule, the GI50 [54] was 3.71 µM, the TGI [54] was 15.4 µM and the GI50 [55] was 8.13 µM. It also gave a TGI [55] of 26.2 µM, a GI50 [56] of 3.7 µM and a TGI [56] of 19.6 µM. The GI50 [57] was 3.34 µM and the TGI [57] was 16.6 µM.
